# In PubChem BioAssay (NCI):
#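 Where inhibition never reached the appropriate level, the endpoint shown equals the highest concentration tested. Otherwise, values were interpolated linearly from a five-concentration, 48-hour dose response in 96-well plates. TGI denotes the concentration required for complete inhibition of growth.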
# Legend:
# Assay in all cases: inhibition of tumour cell growth, NCI panel, 48 h
# [1] = system: A498 renal
# [2] = system: HOP-62 NSCLC
# [3] = system: NCI-H522 lung
# [4] = system: SK-MEL-28 melanoma
# [5] = system: SK-MEL-5 melanoma
# [6] = system: HCT-15 colon
# [7] = system: CCRF-CEM leukemia
# [8] = system: OVCAR-3 ovarian
# [9] = system: SR leukemia
# [10] = system: 786-0 renal
# [11] = system: NCI/ADR-RES ovarian
# [12] = system: MALME-3M melanoma
# [13] = system: BT-549 breast
# [14] = system: SN12C renal
# [15] = system: UACC-62 melanoma
# [16] = system: MDA-MB-435
# [17] = system: SF-539 CNS
# [18] = system: OVCAR-5 ovarian
# [19] = system: UO-31 renal
# [20] = system: MDA-MB-231 breast
# [21] = system: MOLT-4 leukemia
# [22] = system: SNB-19 CNS
# [23] = system: T-47D breast
# [24] = system: ACHN renal
# [25] = system: UACC-257 melanoma
# [26] = system: NCI-H23 lung
# [27] = system: OVCAR-4 ovarian
# [28] = system: HS 578T breast
# [29] = system: RPMI-8226 leukemia
# [30] = system: RXF 393 renal
# [31] = system: M14 melanoma
# [32] = system: DU-145 prostate
# [33] = system: HL-60(TB) leukemia
# [34] = system: SK-OV-3 ovarian
# [35] = system: MDA-N
# [36] = system: SF-268 CNS
# [37] = system: CAKI-1 renal
# [38] = system: PC-3 prostate
# [39] = system: TK-10 renal
# [40] = system: NCI-H460 lung
# [41] = system: OVCAR-8 ovarian
# [42] = system: HCC-2998 colon
# [43] = system: A549 NSCLC
# [44] = system: K-562 leukemia
# [45] = system: SW-620 colon
# [46] = system: EKVX NSCLC
# [47] = system: LOX IMVI melanoma
# [48] = system: SF-295 CNS
# [49] = system: SNB-75 CNS
# [50] = system: IGROV1 ovarian
# [51] = system: COLO 205 colon
# [52] = system: HCT-116 colon
# [53] = system: HT29 colon
# [54] = system: U251 CNS
# [55] = system: MCF7 breast
# [56] = system: SK-MEL-2 melanoma
# [57] = system: HOP-92 NSCLC
smiles,measurement,setting,value
CC(=O)O[C@H]1C(=O)[C@@]2(C)[C@H]([C@H](OC(=O)c3ccccc3)[C@]3(O)C[C@H](OC(=O)[C@H](O)[C@@H](NC(=O)C(C)(O)C(C)O)c4ccccc4)C(C)=C1C3(C)C)[C@]1(OC(C)=O)CO[C@@H]1C[C@@H]2O (stereo partly specified),TGI,[1],> 50 µM
same,TGI,[2],5.21 µM
same,TGI,[3],0.341 µM
same,TGI,[4],> 50 µM
same,TGI,[5],> 50 µM
same,TGI,[6],> 50 µM
same,TGI,[7],> 50 µM
same,TGI,[8],0.437 µM
same,TGI,[9],> 15.9 µM
same,TGI,[10],> 50 µM
same,TGI,[11],> 50 µM
same,TGI,[12],> 50 µM
same,TGI,[13],3.45 µM
same,TGI,[14],> 50 µM
same,TGI,[15],> 50 µM
same,TGI,[16],0.169 µM
same,TGI,[17],0.49 µM
same,TGI,[18],4.65 µM
same,TGI,[19],> 50 µM
same,TGI,[20],43.1 µM
same,TGI,[21],> 50 µM
same,TGI,[22],> 50 µM
same,TGI,[23],> 50 µM
same,TGI,[24],> 50 µM
same,TGI,[25],> 50 µM
same,TGI,[26],> 50 µM
same,TGI,[27],> 50 µM
same,TGI,[28],0.737 µM
same,TGI,[29],> 16.6 µM
same,TGI,[30],1.81 µM
same,TGI,[31],> 50 µM
same,TGI,[32],> 12.1 µM
same,TGI,[33],0.298 µM
same,TGI,[34],10.9 µM
same,TGI,[35],0.0744 µM
same,TGI,[36],> 50 µM
same,TGI,[37],> 50 µM
same,TGI,[38],> 50 µM
same,TGI,[39],> 50 µM
same,TGI,[40],> 50 µM
same,TGI,[41],> 50 µM
same,TGI,[42],0.743 µM
same,TGI,[43],> 50 µM
same,TGI,[44],> 50 µM
same,TGI,[45],> 50 µM
same,TGI,[46],> 50 µM
same,TGI,[47],> 50 µM
same,TGI,[48],16.5 µM
same,TGI,[49],0.398 µM
same,TGI,[50],> 50 µM
same,TGI,[51],0.254 µM
CN(CCCNC(=O)c1nn(-c2ccccc2)c2c1Cc1ccccc1-2)CCCNC(=O)c1nn(-c2ccccc2)c2c1Cc1ccccc1-2,TGI,[1],3.15 µM
same,TGI,[3],2.63 µM
same,TGI,[52],2.87 µM
same,TGI,[4],2.77 µM
same,TGI,[5],3.02 µM
same,TGI,[6],3.1 µM
same,TGI,[7],2.42 µM
same,TGI,[8],3.13 µM
same,TGI,[9],1.42 µM
same,TGI,[10],2.9 µM
same,TGI,[11],3.37 µM
same,TGI,[53],3.42 µM
same,TGI,[12],2.91 µM
same,TGI,[54],2.82 µM
same,TGI,[13],3.21 µM
same,TGI,[14],3.2 µM
same,TGI,[15],3.26 µM
same,TGI,[16],2.87 µM
same,TGI,[17],2.97 µM
same,TGI,[18],3.26 µM
same,TGI,[19],3.29 µM
same,TGI,[20],2.99 µM
same,TGI,[55],2.99 µM
same,TGI,[21],2.95 µM
same,TGI,[22],3.07 µM
same,TGI,[23],3.6 µM
same,TGI,[24],3.12 µM
same,TGI,[25],3.28 µM
same,TGI,[26],3.03 µM
same,TGI,[27],1.85 µM
same,TGI,[29],4.22 µM
same,TGI,[31],2.61 µM
same,TGI,[32],3.21 µM
same,TGI,[33],2.5 µM
same,TGI,[34],3.23 µM
same,TGI,[35],2.66 µM
same,TGI,[36],3.31 µM
same,TGI,[37],2.46 µM
same,TGI,[38],3.09 µM
same,TGI,[56],2.69 µM
same,TGI,[39],3.22 µM
same,TGI,[40],3.26 µM
same,TGI,[41],3.39 µM
same,TGI,[42],2.77 µM
same,TGI,[43],3.58 µM
same,TGI,[44],2.17 µM
same,TGI,[45],2.63 µM
same,TGI,[57],3.26 µM
same,TGI,[50],3.07 µM
same,TGI,[51],2.8 µM
